Experimental findings from patent US20230250077A1, “SULFONYLBENZAMIDE DERIVATIVE AND CONJUGATE THEREOF, PREPARATION METHOD THEREFOR AND USE THEREOF” (Jiangsu Hengrui Pharmaceuticals Co., Ltd., priority 2020, published 2023) are described below.

The test system of this series is SD rats. Kind of series: Toxicity test on SD rats by repeated intravenous administrations for 7 days. It is filed as in vivo, rat. As to conditions: 1 mg/kg intravenously qd. The method, then:
This experiment was performed to evaluate the toxicity of compound 9 and AZD4320 to SD rats by repeated intravenous administrations for 7 days.
30 SD rats, weighing about 180-200 g and aged 6-7 weeks, half male and half female, purchased from Zhejiang Vital River Laboratory Animal Technology Co., Ltd., SPF grade. Animal certification number: 200917Aazz0619000298 and 20200917Aazz0619000104. Production license number: SCXK (Zhejiang) 2019-0001.
Housing conditions: SPF grade, animals were housed in plastic and transparent rat cages, 2-3 per cage. The room temperature was 20-26° C. and the relative humidity was 40%-70%. The illumination was controlled in a 12/12 light/dark cycle. The granulated feed for mice was freely taken in an unlimited amount.
The rats were randomly divided into the following 3 groups: a vehicle control group, a compound 9-1 mg/kg group and a compound AZD4320-1 mg/kg group, with 6 rats in each group, half male and half female.
Dosage of the test sample for the 7-day toxicity test in rats: 1 mg/kg (qd), for 7 consecutive days. Administration route: intravenously, dosing volume: 10 mL/kg, dosing frequency and dosing period: daily in the morning for 7 days.
Vehicle: 1.5% DMA+98.5% (10% HS-15), wherein DMA is N,N-dimethylacetamide (Shanghai Titan Scientific Co., Ltd., Cat #01013630); and HS-15 is polyethylene glycol stearate 15 (Solutol HS15) (Shanghai Xietai Chemical Co., Ltd., Cat #50253404).
Hitachi 7100 automatic biochemical analyzer
Siemens advia 2120i automatic blood cell analyzer
Sysmex ca1500 automatic coagulation analyzer
The detection results were input and statistically processed by Excel of the computer.
Clinical symptoms, food intake and general visual observation results of dissection were not statistically calculated, and indexes such as body weight, organ weight and clinical examination were counted by using T-test.
SD rats were intravenously administered with 1 mg/kg compound 9 or 1 mg/kg AZD4320 at 5 mL/kg for 7 repeated days.

Entries after “also recorded” stand apart in the source; their conditions may differ. Marks after values point to notes of the source that are not given here.

For `O=C(NS(=O)(=O)c1ccc(N[C@@H](CSc2ccccc2)C[C@@H]2CCCN2CCO)c(S(=O)(=O)C(F)(F)F)c1)c1ccc(N2CCC([C@@H](O)c3ccccc3-c3ccc(Cl)cc3)CC2)cc1` [Example 2-9, 4-(4-((R)-(4′-chloro-[1,1′-biphenyl]-2-yl)(hydroxy)methyl)piperidin-1-yl)-N-((4-(((R)-1-((S)-1-(2-hydroxyethyl)pyrrolidin-2-yl)-3-(phenylthio)propan-2-yl)amino)-3-((trifluoromethyl)sulfonyl)phenyl)sulfonyl)benzamide], the “Clinical observation of the animals during treatment” value is recorded as “No significant abnormalities” and the “PLT (10^9/L)” value is 1,258.67* 10^9/L. Besides, the “Effect on platelets (in words)” value (vs vehicle control, listed as compound 9, 1 mg/kg) is given as “slightly reduced but within the background normal range; also recorded: reduces platelets less than the positive control group”.
